Assays:
[1] = Binding affinity against porcine sarcoplasmic reticulum
[2] = The compound was tested for binding affinity in a buffer containing 500 uM-3 mM beta,gamma-methyleneadenosine 5'-triphosphate(AMP-PCP) in porcine sarcoplasmic reticulum
[3] = The compound was tested for binding affinity against porcine sarcoplasmic reticulum(SR) membrane
[4] = The compound was tested for binding affinity in the absence of beta, gamma- methyleneadenosine 5'-triphosphate(AMP-PCP) in porcine sarcoplasmic reticulum
[5] = The compound was tested for binding affinity against porcine sarcoplasmic reticulum
[6] = The compound was tested for binding affinity against porcine sarcoplasmic reticulum(SR) membrane in the absence or presence of atropine
[7] = The compound was tested for binding affinity against porcine sarcoplasmic reticulum(SR) membrane in the absence or presence of dantrolene from porcine sarcoplasmic reticulum
[8] = The compound was tested for binding affinity against porcine sarcoplasmic reticulum(SR) membrane in the absence or presence of azumolene

O=C1CN(/N=C/c2ccc(-c3ccc([N+](=O)[O-])cc3)o2)C(=O)N1 [DANTROLENE SODIUM]
Kd [1]: 300 nM

[3H]/C(=N\N1CC(=O)[N-]C1=O)c1ccc(-c2ccc([N+](=O)[O-])cc2)o1.[Na+]
Kd [2]: 210 nM | Ki [3]: 1500 nM | Kd [4]: 275 nM

[3H]/C(=N\N1CC(=O)[N-]C1=O)c1ccc(-c2ccc(N=[N+]=[N-])cc2)o1.[Na+] [[3H]-AZIDODANTROLINE]
Ki [5]: 175 nM | Ki [6]: 100000 nM | Ki [7]: 20000 nM | Ki [8]: 100000 nM
